Experimental data as given in US11666565B2, “Treatment of cancer using a SMAD3 inhibitor” (The Chinese University of Hong Kong, priority 2012, dated 2023).

Tests used:
[1] = system: lung carcinoma (LLC)
Experimental: (§1) Therapeutic effect of SIS3 was tested in subcutaneously invasive mouse model of lung carcinoma and melanoma. Lucifase-labeled highly invasive mouse lung carcinoma cells (LLC-luc) and melanoma cells (B16F10-luc) were injected subcutaneously into genetically-identical C57/BL6 mice at a dose of 2 million cells in 200 ul PBS per mouse. Cancer growth, invasion, and metastasis were monitored by measuring tumor size, weight, and bioluminescent imaging weekly. After cancer was established at one week after implantation, tumor-bearing mice received intraperitoneally SIS3 at dosages of 2.5, 5, and 10 ug/Kg body weight daily for 2 weeks. Control animals received daily saline, instead of SIS3, and a group of tumor-bearing mice without any treatment (used as untreated controls) were also monitored. Five mice per group were used in this study. Mice were weighed and tumor size or metastasis was examined by live bioluminescent imaging weekly. The survival rate was recorded. All mice were euthanized 2 weeks after treatment for further examination by histology and tumor volume and weight, invasion, and metastasis.

[2] = system: melanoma (B16F10); details: syngeneic mouse model, N=5
Experimental: as §1

## COc1cc2c(cc1OC)CN(C(=O)/C=C/c1c(-c3ccccc3)n(C)c3ncccc13)CC2 [SIS3, (6,7-Dimethoxy-2-((2E)-3-(1-methyl-2-phenyl-1H-pyrrolo[2,3-b]pyridin-3-yl-prop-2-enoyl))-1,2,3,4-tetrahydroisoquinoline)]
[1]; after 10 days treatment with SIS3 at doses of 5-10 μg/g body weight, N=5, FIG. 6
  detectability of cancers: most of cancers become undetectable
[1]; lung carcinoma (LLC) mouse model, FIGS. 3-7
  invasion into the cancer surrounding tissues and metastasis to lymph nodes, lung, liver, gastric and colon tissue: suppressed
[1]; subcutaneous LLC, 2 million cells/mouse, syngeneic mouse model, N=5, FIG. 7A
  cancer growth as demonstrated by tumor weight: prevents cancer growth
[2]; subcutaneous melanoma B16F10, 3 million cells/mouse, FIG. 4
  cancer weight: markedly lowering the cancer weight
[2]; SIS3 intraperitoneally daily, 2.5, 5 and 10 ug/Kg body weight, FIG. 3
  melanoma (B16F10) growth by live imaging analysis: inhibits melanoma (B16F10) growth in a dosage-dependent manner
